Values after ≈ are worked out from the molar mass of the structure shown.
Legend:
Influenza A/Sydney/5/97 = assay: Cytopathic effect (CPE) assay in MDCK cells, MTT readout; type: cell-based; conditions: concentration that inhibited CPE by 50%, up to 72 hours
A/W SN/33 BVLV09 (H1N1) = assay: Plaque reduction assay (PRA) in MDCK cells; type: cell-based, influenza A (H1N1); conditions: reduces plaque numbers by 50%
[1] = test system: A/New Caledonia/20/99 BVLV008 (H1N1); assay: Plaque reduction assay (PRA) in MDCK cells; type: cell-based; conditions: reduces plaque numbers by 50%
[2] = test system: A/Panama/2007/99 BVLV008 (H3N2); assay: Plaque reduction assay (PRA) in MDCK cells; type: cell-based; conditions: reduces plaque numbers by 50%
B/Harbin/7/95 BVLV008 = assay: Plaque reduction assay (PRA) in MDCK cells; type: cell-based; conditions: Influenza B virus, read-out: EC50 PRA B/Harb*
[3] = test system: B/Yamaneshl/166/98 BVLV007; assay: Plaque reduction assay (PRA) in MDCK cells; type: cell-based; conditions: Influenza B virus, read-out: EC50 PRA B/Yam*, reduces plaque numbers by 50%, MDCK cells

SMILES	ID50 A/Sydney/5/97+ (Influenza A/Sydney/5/97) [µg/mL]	EC50 PRA A/W SN* (A/W SN/33 BVLV09 (H1N1)) [µg/mL]	EC50 PRA A/New* [1] [µg/mL]	EC50 PRA A/Pan* [2] [µg/mL]	EC50 (B/Harbin/7/95 BVLV008) [µg/mL]	EC50 [3] [µg/mL]
CC(=O)N[C@@H]1C(N=C(N)N)C=C(C(=O)O)O[C@H]1[C@H](O)[C@H](O)CO (single isomer, unassigned) [Compound A, 4-guanidino-2-deoxy-2,3-dehydro-N-acetylneuraminic acid]	0.023 ± 0.024 (≈ 0.0692 µM)	> 0.1	0.00023 (≈ 0.000692 µM)	0.003 (≈ 0.00903 µM)	0.00019 (≈ 0.000572 µM)	
NC12CC3CC(CC(C3)C1)C2 [Amantadine]						2.08 (≈ 13.8 µM)
